Measurements taken from patent publication US11629171B2, “Beta-hairpin peptidomimetics” (POLYPHOR AG, priority 2017, dated 2023).
≈ marks a conversion by molar mass, not a printed value. Where a SMILES comes first, the peptide text is derived from it. Bridges are numbered along the chain shown (N, C = ends). Roman numbers before positions name the chains, in order. [ ]: non-standard residue; d: D form. The star is where a group is joined. Tyrosinol = OC[C@H](Cc1ccc(O)cc1)N*; Thr(ol) = C[C@@H](O)[C@H](N)CO; Tle = CC(C)(C)[C@H](N)C(=O)O; NMeV = CN[C@H](C(=O)O)C(C)C; Hiv = CC(C)[C@H](O)C(=O)O; dDab = NCC[C@@H](N)C(=O)O; hSer = N[C@@H](CCO)C(=O)O; Dab = NCC[C@H](N)C(=O)O; Dap = NC[C@H](N)C(=O)O

What was measured:
[1] = tested on: male ICR mice; assay: Tolerability in a mouse model (Maximum Tolerated Dose assay); assay type: in vivo; conditions: 2 × 30 mg/kg s.c. at a 12-hr interval, groups of 3
Experimental: The tolerability of the peptides was tested in a mouse model at Pharmacology Discovery Services Taiwan Ltd, Taipei, Taiwan. The peptides were administered subcutaneously (s.c.) at 30 mg/kg or 40 mg/kg, respectively; twice at a 12-hr interval, for assessment of possible adverse effects in the Maximum Tolerated Dose (MTD) assay in male ICR (Institute of Cancer Research) mice. The peptides were dissolved in 0.9% NaCl at the concentrations either of 6 or 8 mg/mL, respectively, based on the free base molecular weight. The pH values of dosing solutions were adjusted to 6.5-7.6 before s.c. administration. A dosing volume at 5 mL/kg and a concentration of 6 or 8 mg/mL, respectively, was applied. The fresh prepared stock solution were stored at 4° C. during the study. Male ICR mice weighing 23±3 g were provided by BioLasco Taiwan (under Charles River Laboratories Licensee). Animals were acclimated for 3 days prior to use and were confirmed to be in good health. The peptides were administered s.c. at 30 mg/kg or 40 mg/kg, respectively, twice at a 12-hr interval, to groups of 3 ICR male mice and observed for the presence of acute toxic symptoms (mortality, convulsions, tremors, muscle relaxation, sedation, etc.) and autonomic effects (diarrhea, salivation, lacrimation, vasodilation, piloerection, etc.) during the first 30 min. The peptides were administered again at a 12-hr (two total doses) interval, following the first dose. The animals were then observed again for the presence of acute toxic symptoms and autonomic effects during the first 30 min.

[2] = tested on: Acinetobacter baumannii DSM 30008; assay type: cell-based; conditions: DSM 30008
Summary of the method: (§1)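 Peptides are tested in serial two-fold dilutions against about 10^6 CFU/mL in MH-II broth containing 0.002% P-80 (v/v, final). Plates incubate 18-20 h at 35° C, and the MIC is the lowest peptide level (μg/mL) showing no visible growth.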

[3] = tested on: Escherichia coli 926415; assay type: cell-based; conditions: 926415
Summary of the method: as §1

[4] = tested on: Pseudomonas aeruginosa ATCC 27853; assay type: cell-based; conditions: ATCC 27853
Summary of the method: as §1

[5] = tested on: Enterobacter cloacae 848840; assay type: cell-based; conditions: 848840
Summary of the method: as §1

[6] = tested on: Acinetobacter baumannii 872842; assay type: cell-based; conditions: 872842
Summary of the method: as §1

[7] = tested on: Klebsiella pneumoniae SSI #3010; assay type: cell-based; conditions: SSI #3010
Summary of the method: as §1

[8] = tested on: Klebsiella pneumoniae 968733; assay type: cell-based; conditions: 968733
Summary of the method: as §1

[9] = tested on: Escherichia coli ATCC 25922; assay type: cell-based; conditions: ATCC 25922
Summary of the method: as §1

[10] = tested on: human red blood cells (hRBC); assay: Hemolysis; assay type: cell-based; conditions: red cells of human, 1 h, 200
Summary of the method: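 Hemoglobin release from PBS-washed hRBC at 20% (v/v), incubated 1 h at 37° C with peptides at 200 μg/mL, is measured at 540 nm. Values are blank corrected and given as a fraction of Triton X-100 lysis × 100%.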

Structure (SMILES) | Mortality and dose [1] | MIC [2] [µg/mL] | MIC [3] [µg/mL] | MIC [4] [µg/mL] | MIC [5] [µg/mL] | MIC [6] [µg/mL] | MIC [7] [µg/mL] | MIC [8] [µg/mL] | MIC [9] [µg/mL] | Hemolysis at 200 μg/mL [10] [%]
CC(=O)N[C@H](C(=O)N[C@H]1CSSC[C@@H](C(=O)N[C@@H](CO)C(N)=O)NC(=O)[C@H](C(C)C)NC(=O)[C@H](CO)NC(=O)[C@H](Cc2c[nH]c3ccccc23)NC(=O)[C@H](CCO)NC(=O)[C@@H](CCN)NC(=O)[C@H](CCC(=O)N[C@@H](CCN)C(=O)N[C@H](C(=O)N[C@@H](CCN)C(=O)N[C@H]2CCNC(=O)[C@H]([C@@H](C)O)NC(=O)[C@H](CCN)NC(=O)[C@H](CCN)NC(=O)[C@H](CC(C)C)NC(=O)[C@@H](CC(C)C)NC(=O)[C@H](CCN)NC2=O)[C@@H](C)O)NC(=O)[C@H](CCN)NC(=O)[C@H](Cc2ccc(O)cc2)NC1=O)C(C)C [Ex. 41] (I: Ac-VCY[Dab]E[dDab][hSer]WSVCS-NH2 / II: [Dab]T[Dab][Dab][Dab][dL]L[Dab][Dab]T; disulfide I:2-I:11; amide I:5-II:N; lactam II:4-II:C) | 0/3 died at 2 × 30 mg/kg | 0.0625 (≈ 0.0258 µM) | 0.25 (≈ 0.103 µM) | 0.25 (≈ 0.103 µM) | 0.25 (≈ 0.103 µM) | 0.125 (≈ 0.0515 µM) | 0.125 (≈ 0.0515 µM) | 0.125 (≈ 0.0515 µM) | 0.0625 (≈ 0.0258 µM) | <1
CN[C@H](C(=O)N[C@H]1CSSC[C@@H](C(=O)N[C@@H](CO)C(=O)O)NC(=O)[C@H](C(C)C)NC(=O)[C@H](CO)NC(=O)[C@H](Cc2c[nH]c3ccccc23)NC(=O)[C@H](CCO)NC(=O)[C@@H](CCN)NC(=O)[C@H](CCC(=O)N[C@@H](CCN)C(=O)N[C@H](C(=O)N[C@@H](CCN)C(=O)N[C@H]2CCNC(=O)[C@H]([C@@H](C)O)NC(=O)[C@H](CCN)NC(=O)[C@H](CCN)NC(=O)[C@H](CC(C)C)NC(=O)[C@@H](CC(C)C)NC(=O)[C@H](CCN)NC2=O)[C@@H](C)O)NC(=O)[C@H](CCN)NC(=O)[C@H](Cc2ccc(O)cc2)NC1=O)C(C)C [Ex. 42] (I: H-[NMeV]CY[Dab]E[dDab][hSer]WSVCS-OH / II: [Dab]T[Dab][Dab][Dab][dL]L[Dab][Dab]T; disulfide I:2-I:11; amide I:5-II:N; lactam II:4-II:C; C-terminus assumed) | 0/3 died at 2 × 30 mg/kg | 0.5 (≈ 0.208 µM) | 0.5 (≈ 0.208 µM) | 0.25 (≈ 0.104 µM) | 4 (≈ 1.67 µM) | 1 (≈ 0.417 µM) | 0.25 (≈ 0.104 µM) | 2 (≈ 0.833 µM) | 0.125 (≈ 0.0521 µM) | <1
CN[C@H](C(=O)N[C@H]1CSSC[C@@H](C(=O)N[C@@H](CO)C(N)=O)NC(=O)[C@H](C(C)C)NC(=O)[C@H](CO)NC(=O)[C@H](Cc2c[nH]c3ccccc23)NC(=O)[C@H](CCO)NC(=O)[C@@H](CCN)NC(=O)[C@H](CCC(=O)N[C@@H](CCN)C(=O)N[C@H](C(=O)N[C@@H](CCN)C(=O)N[C@H]2CCNC(=O)[C@H]([C@@H](C)O)NC(=O)[C@H](CCN)NC(=O)[C@H](CCN)NC(=O)[C@H](CC(C)C)NC(=O)[C@@H](CC(C)C)NC(=O)[C@H](CCN)NC2=O)[C@@H](C)O)NC(=O)[C@H](CCN)NC(=O)[C@H](Cc2ccc(O)cc2)NC1=O)C(C)C [Ex. 43] (I: H-[NMeV]CY[Dab]E[dDab][hSer]WSVCS-NH2 / II: [Dab]T[Dab][Dab][Dab][dL]L[Dab][Dab]T; disulfide I:2-I:11; amide I:5-II:N; lactam II:4-II:C) | 0/3 died at 2 × 30 mg/kg | 0.5 (≈ 0.208 µM) | 0.5 (≈ 0.208 µM) | 0.5 (≈ 0.208 µM) | 2 (≈ 0.834 µM) | 0.125 (≈ 0.0521 µM) | 0.25 (≈ 0.104 µM) | 2 (≈ 0.834 µM) | 0.25 (≈ 0.104 µM) | <1
CC(C)C[C@@H]1NC(=O)[C@@H](CC(C)C)NC(=O)[C@H](CCN)NC(=O)[C@@H](NC(=O)[C@H](CCN)NC(=O)[C@@H](NC(=O)[C@H](CCN)NC(=O)CC[C@@H]2NC(=O)[C@H](CN)NC(=O)[C@H](Cc3ccc(O)cc3)NC(=O)[C@@H](NC(=O)[C@@H](O)C(C)C)CSSC[C@@H](C(=O)N[C@H](CO)[C@@H](C)O)NC(=O)[C@H](C(C)(C)C)NC(=O)[C@H](CO)NC(=O)[C@H](Cc3c[nH]c4ccccc34)NC(=O)[C@H]([C@@H](C)O)NC(=O)[C@@H](CCN)NC2=O)[C@@H](C)O)CCNC(=O)[C@H]([C@@H](C)O)NC(=O)[C@H](CCN)NC(=O)[C@H](CCN)NC1=O [Ex. 58] (I: H-[Hiv]CY[Dap]E[dDab]TWS[Tle]C[Thr(ol)] / II: [Dab]T[Dab][Dab][Dab][dL]L[Dab][Dab]T; disulfide I:2-I:11; amide I:5-II:N; lactam II:4-II:C) | 0/3 died at 2 × 30 mg/kg | 0.0625 (≈ 0.0262 µM) | 0.125 (≈ 0.0524 µM) | 0.25 (≈ 0.105 µM) | 0.125 (≈ 0.0524 µM) | 0.0625 (≈ 0.0262 µM) | 0.125 (≈ 0.0524 µM) | 0.25 (≈ 0.105 µM) | 0.0625 (≈ 0.0262 µM) | 1
CC(=O)N[C@H](C(=O)N[C@H]1CSSC[C@@H](C(=O)N[C@@H](Cc2ccc(O)cc2)C(N)=O)NC(=O)[C@H](C(C)C)NC(=O)[C@H](CO)NC(=O)[C@H](Cc2c[nH]c3ccccc23)NC(=O)[C@H](CCO)NC(=O)[C@@H](CCN)NC(=O)[C@H](CCC(=O)N[C@@H](CCN)C(=O)N[C@H](C(=O)N[C@@H](CCN)C(=O)N[C@H]2CCNC(=O)[C@H]([C@@H](C)O)NC(=O)[C@H](CCN)NC(=O)[C@H](CCN)NC(=O)[C@H](CC(C)C)NC(=O)[C@@H](CC(C)C)NC(=O)[C@H](CCN)NC2=O)[C@@H](C)O)NC(=O)[C@H](CCN)NC(=O)[C@H](CO)NC1=O)C(C)C [Ex. 65] (I: Ac-VCS[Dab]E[dDab][hSer]WSVCY-NH2 / II: [Dab]T[Dab][Dab][Dab][dL]L[Dab][Dab]T; disulfide I:2-I:11; amide I:5-II:N; lactam II:4-II:C) | 0/3 died at 2 × 30 mg/kg | 0.125 (≈ 0.0515 µM) | 0.5 (≈ 0.206 µM) | 0.125 (≈ 0.0515 µM) | 4 (≈ 1.65 µM) | 0.25 (≈ 0.103 µM) | 0.25 (≈ 0.103 µM) | 0.5 (≈ 0.206 µM) | 0.125 (≈ 0.0515 µM) | <1
CC(C)C[C@@H]1NC(=O)[C@@H](CC(C)C)NC(=O)[C@H](CCN)NC(=O)[C@@H](NC(=O)[C@H](CCN)NC(=O)[C@@H](NC(=O)[C@H](CCN)NC(=O)CC[C@@H]2NC(=O)[C@H](CCN)NC(=O)[C@H](C(C)C)NC(=O)[C@@H](NC(=O)[C@@H](O)C(C)C)CSSC[C@@H](C(=O)N[C@H](CO)Cc3ccc(O)cc3)NC(=O)[C@H](C(C)(C)C)NC(=O)[C@H](CO)NC(=O)[C@H](Cc3c[nH]c4ccccc34)NC(=O)[C@H](CCO)NC(=O)[C@@H](CCN)NC2=O)[C@@H](C)O)CCNC(=O)[C@H]([C@@H](C)O)NC(=O)[C@H](CCN)NC(=O)[C@H](CCN)NC1=O [Ex. 92] (I: H-[Hiv]CV[Dab]E[dDab][hSer]WS[Tle]C-Tyrosinol / II: [Dab]T[Dab][Dab][Dab][dL]L[Dab][Dab]T; disulfide I:2-I:11; amide I:5-II:N; lactam II:4-II:C) | 0/3 died at 2 × 30 mg/kg | 0.125 (≈ 0.0521 µM) | 0.0625 (≈ 0.0261 µM) | 0.125 (≈ 0.0521 µM) | 0.25 (≈ 0.104 µM) | 0.125 (≈ 0.0521 µM) | 0.0625 (≈ 0.0261 µM) | 0.125 (≈ 0.0521 µM) | 0.0625 (≈ 0.0261 µM) | <1
